Data: BindingDB's records for PubMed 34146913 (National Institute of Pharmaceutical Education and Research …, 2021)

Test: Inhibition of DC-SIGN extracellular domain (unknown origin) by SPR analysis

| Kd [µM] | Structure (SMILES) |
| --- | --- |
| 180 | O=C(NCCc1c[nH]c2ccccc12)c1c(O)nc2sccn2c1=O |
| 400 | N=c1c(C(=O)NCCc2cn3c(n2)SCC3)cnc2sccn12 |

Test: Inhibition of DC-SIGN extracellular domain (unknown origin) expressed in Escherichia coli DE3(BL21) incubated for 1 hrs in presence of Man-Fl-BSA by high-throughput fluorescence-based assay

| IC50 [µM] | Structure (SMILES) |
| --- | --- |
| 4.4 | COc1ccccc1N1CCN(C(=O)c2ccc3c(c2)NC(=O)C(CCCc2ccccc2C)N3)CC1 (centres undefined) |
| 32 | COC(=O)c1ccc(-c2ccc(/C=C3\C(=O)N(c4ccc(S(N)(=O)=O)cc4)N=C3C(F)(F)F)o2)cc1 |
| 2.6 | NOC(=O)c1ccc(CCCC2Nc3ccc(C(=O)N4CCN(c5ncccn5)CC4)cc3NC2=O)cc1 (centres undefined) |
| 7.3 | O=C1Nc2cc(C(=O)N3CCN(c4ccccc4)CC3)ccc2NC1CSCc1c(F)cccc1Cl (centres undefined) |
| 10 | CN1CCN(c2ccc(/C=C3\Sc4ccccc4C3=O)cc2[N+](=O)[O-])CC1 |
| 1.6 | CCC(=O)Nc1nc(C)c(-c2csc(Nc3ccc(N(C)C)cc3)n2)s1 |
| 6.1 | Cc1ccc(N(C)S(=O)(=O)c2ccc3[nH]cc(C(=O)N4CCN(c5ccccc5)CC4)c(=O)c3c2)cc1C |
